Data as given in patent US20030065030A1, “Autonomic controlling agents and health drinks and foods” (priority 2001, published 2003).

Tested on: sympathetic nerve hepatic branches
Assay: efferent neural activity of the sympathetic nerve hepatic branches after intravenous carnosine
Format: in vivo, rat
Settings: 100 ng intravenous
Procedure: According to the method of Niijima (Neurobiology 3:299-307, 1995), the effect of carnosine on the autonomic nerve activity was investigated. Wistar male rats, weighing about 300 g, that had been kept in an environment of room temperature (24° C.) and free access to the feed were fasted (with free access to water) 12 hours before the start of the experiment. Rats were subjected to abdominal section under urethane anesthesia (1 g/kg body weight, intraperitoneal administration), neurofilaments were isolated from central cut ends of a sympathetic nerve branch or a vagal nerve branch, and the efferent neural activity was recorded via an AC amplifier. The neural activity was observed using an oscilloscope and was recorded into magnetic tape. At the same time, the time course of the neural activity was recorded with a pen-type recorder via a rate meter with a reset time set at 5 seconds.
Carnosine (100 ng or 1,000 ng dissolved in 0.1 ml physiological saline) was intravenously administered. As the control, physiological saline (0.1 ml) was alone administered intravenously.
The effect of carnosine administration was calculated as the neural activity count (%) after carnosine administration relative to neural activity count (mean value of 10 activity counts during 5 minutes) before administration set at 100. Five rats were used for each experiment. Data were tested with ANOVA (p<0.05) and were expressed as mean +/− standard error.

NCCC(=O)N[C@@H](Cc1cnc[nH]1)C(=O)O [carnosine, β-alanyl-L-histidine]
suppression rate of efferent neural activity of the sympathetic nerve hepatic branches (30 minutes after administration): 20.1% | suppression rate of efferent neural activity of the sympathetic nerve hepatic branches (60 minutes after administration): 25.9% | suppression rate of efferent neural activity of the sympathetic nerve hepatic branches (90 minutes after administration): 32.0%
